# Measurements taken from patent US20130109682A1, “CYCLIC ETHER COMPOUNDS USEFUL AS KINASE INHIBITORS” (NOVARTIS AG, priority 2010, published 2013).
# pEC50, pIC50: −log10 of the molar value.
# How the values were obtained:
# [1] = target: PIM2 (Homo sapiens, UniProt Q9P1W9); experiment: Pim 2 AlphaScreen assay (high ATP); type: biochemical; conditions: read-out: Pim2 IC50
# Protocol: Pim1, Pim2, Pim3 AlphaScreen Assay Pim 1, Pim 2 & Pim 3 AlphaScreen assays using high ATP (11-125×ATP Km) were used to determine the biochemical activity of the inhibitors. The activity of Pim 1, Pim 2, & Pim 3 is measured using a homogeneous bead based system quantifying the amount of phosphorylated peptide substrate resulting from kinase-catalyzed phosphoryl transfer to a peptide substrate. Compounds to be tested are dissolved in 100% DMSO and directly distributed to a white 384-well plate at […] per well. To start the reaction, 5 μl of 100 nM Bad peptide (Biotin-AGAGRSRHSSYPAGT —OH) and ATP (concentrations described below) in assay buffer (50 mM Hepes, pH=7.5, 5 mM MgCl2, 0.05% BSA, 0.01% Tween-20, 1 mM DTT) is added to each well. This is followed by the addition of 5 μl/well of Pim 1, Pim 2 or Pim 3 kinase in assay buffer (concentrations described below). Final assay concentrations (described below) are in 2.5% DMSO. The reactions are performed for ˜2 hours, then stopped by the addition of 10 μl of 0.75 μg/ml anti-phospho Ser/Thr antibody (Cell Signaling), 10 μg/ml Protein A AlphaScreen beads (Perkin Elmer), and 10 μg/ml streptavidin coated AlphaScreen beads in stop/detection buffer (50 mM EDTA, 95 mM Tris, pH=7.5, 0.01% Tween-20). The stopped reactions are incubated overnight in the dark. The phosphorylated peptide is detected via an […] initiated chemiluminescence/fluorescence cascade using the Envision plate reader (Perkin Elmer).
# IC50, the half maximal inhibitory concentration, represents the concentration of a test compound that is required for 50% inhibition of its target in vitro under the described assay conditions.
# [2] = system: KMS11 (human myeloma cell line); experiment: Cell proliferation assay (CellTiter-Glo), KMS11; type: cell-based; conditions: Homo sapiens, KMS-11; KMS11 cells, cell proliferation; read-out: KMS11-Luc EC50
# Method in brief: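 KMS11 cells in IMDM with 10% FBS and sodium pyruvate, seeded at 2000 cells/well on assay day. Compound added at 2× to equal volume of cells, incubated 3 days at 37° C. Viability read by CellTiter-Glo luminescence; EC50 derived.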
# [3] = target: GSK3β (Homo sapiens, UniProt P49841); experiment: GSK3β ATP depletion assay; type: biochemical; conditions: ATP depletion assay; read-out: GSK3b IC50
# GSK3β, sequence (P49841 whole entry, species assumed): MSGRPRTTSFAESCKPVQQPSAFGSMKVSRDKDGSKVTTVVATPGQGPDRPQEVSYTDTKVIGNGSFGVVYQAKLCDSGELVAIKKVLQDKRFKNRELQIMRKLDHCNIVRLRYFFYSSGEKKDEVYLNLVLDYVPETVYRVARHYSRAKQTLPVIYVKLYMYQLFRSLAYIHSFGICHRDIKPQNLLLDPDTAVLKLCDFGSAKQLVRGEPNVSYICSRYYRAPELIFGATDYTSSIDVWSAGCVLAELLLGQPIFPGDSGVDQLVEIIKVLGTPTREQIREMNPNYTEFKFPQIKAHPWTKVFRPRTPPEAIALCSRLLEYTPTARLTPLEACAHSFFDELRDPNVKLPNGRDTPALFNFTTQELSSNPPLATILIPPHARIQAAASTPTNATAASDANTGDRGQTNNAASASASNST
# Method in brief: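 Human GSK3β (5 nM) preincubated 15 min with 10 μM biotinylated phospho-CREB peptide in pH 7.5 Tris buffer (15 mM MgCl2, 1 mM DTT, 0.1% BSA, 2.5% DMSO). Reaction started with 2 μM ATP and run to about 50% ATP depletion. Remaining ATP measured by KinaseGlo luminescence.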
# PIM2, sequence (Q9P1W9 whole entry): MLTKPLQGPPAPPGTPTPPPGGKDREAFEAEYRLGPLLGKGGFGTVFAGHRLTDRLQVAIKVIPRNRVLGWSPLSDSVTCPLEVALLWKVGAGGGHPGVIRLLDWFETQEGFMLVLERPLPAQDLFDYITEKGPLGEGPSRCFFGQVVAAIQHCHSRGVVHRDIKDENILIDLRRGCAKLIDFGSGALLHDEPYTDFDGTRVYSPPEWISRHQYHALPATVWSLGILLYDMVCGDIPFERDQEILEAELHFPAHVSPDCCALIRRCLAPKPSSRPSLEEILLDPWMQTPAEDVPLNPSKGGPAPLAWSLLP
SMILES,pIC50 [1],pEC50 [2],pIC50 [3]
"CC(C)[C@@H]1C[C@H](N)C[C@H](c2ccncc2NC(=O)c2ccc(F)c(-c3c(F)cccc3F)n2)O1 [Example 300, N-(4-((2R,4S,6S)-4-amino-6-isopropyltetrahydro-2H-pyran-2-yl)pyridin-3-yl)-6-(2,6-difluorophenyl)-5-fluoropicolinamide]",7.94,6.16,5.48
"CC[C@H]1O[C@@H](c2ccncc2NC(=O)c2ccc(F)c(-c3c(F)cc(C(C)(C)O)cc3F)n2)C[C@@H](N)[C@@H]1O [Example 336, N-(4-((2R,4R,5S,6R)-4-amino-6-ethyl-5-hydroxytetrahydro-2H-pyran-2-yl)pyridin-3-yl)-6-(2,6-difluoro-4-(2-hydroxypropan-2-yl)phenyl)-5-fluoropicolinamide]",8.41,6.74,
"CC(C)C(=O)Nc1cc(F)c(-c2nc(C(=O)Nc3cnccc3[C@H]3C[C@@H](N)[C@](C)(O)[C@@H](C)O3)ccc2F)c(F)c1 [Example 339, N-(4-((2R,4R,5S,6R)-4-amino-5-hydroxy-5,6-dimethyltetrahydro-2H-pyran-2-yl)pyridin-3-yl)-6-(2,6-difluoro-4-isobutyramidophenyl)-5-fluoropicolinamide]",8.46,6.64,
"CC(C)[C@@H]1C[C@H](N)C[C@H](c2ccncc2NC(=O)c2ccc(F)c(-c3c(F)cc(S(C)(=O)=O)cc3F)n2)O1 [Example 302, N-(4-((2R,4S,6S)-4-amino-6-isopropyltetrahydro-2H-pyran-2-yl)pyridin-3-yl)-6-(2,6-difluoro-4-(methylsulfonyl)phenyl)-5-fluoropicolinamide]",7.15,5.79,5.80
"CNC(=O)c1cc(F)c(-c2nc(C(=O)Nc3cnccc3[C@H]3C[C@@H](N)[C@](C)(O)[C@@H](C)O3)ccc2F)c(F)c1 [Example 333, N-(4-((2R,4R,5S,6R)-4-amino-5-hydroxy-5,6-dimethyltetrahydro-2H-pyran-2-yl)pyridin-3-yl)-6-(2,6-difluoro-4-(methylcarbamoyl)phenyl)-5-fluoropicolinamide]",7.56,5.42,
"C[C@H]1O[C@@H](c2ccncc2NC(=O)c2ccc(F)c(N3CCS(=O)(=O)CC3)n2)C[C@@H](N)[C@]1(C)O [Example 335, N-(4-((2R,4R,5S,6R)-4-amino-5-hydroxy-5,6-dimethyltetrahydro-2H-pyran-2-yl)pyridin-3-yl)-6-(1,1-dioxidothiomorpholino)-5-fluoropicolinamide]",< 4.60,< 5.00,
"CC(C)[C@H]1OC(c2ccncc2NC(=O)c2ccc(F)c(-c3c(F)cc(S(C)(=O)=O)cc3F)n2)C[C@@H](N)[C@@H]1O (stereo in doubt) [Example 305, N-(4-((2S,4R,5S,6R)-4-amino-5-hydroxy-6-isopropyltetrahydro-2H-pyran-2-yl)pyridin-3-yl)-6-(2,6-difluoro-4-(methylsulfonyl)phenyl)-5-fluoropicolinamide]",7.82,6.51,5.55
"C[C@]1(O)[C@H](N)CC(c2ccncc2NC(=O)c2ccc(F)c(-c3c(F)cc(S(C)(=O)=O)cc3F)n2)O[C@@H]1C1CC1 (stereo in doubt) [Example 281, N-(4-((2S,4R,5S,6R)-4-amino-6-cyclopropyl-5-hydroxy-5-methyltetrahydro-2H-pyran-2-yl)pyridin-3-yl)-6-(2,6-difluoro-4-(methylsulfonyl)phenyl)-5-fluoropicolinamide]",7.21,5.96,5.37
"C[C@H]1O[C@@H](c2ccncc2NC(=O)c2ccc(F)c(-c3c(F)cc(S(C)(=O)=O)cc3F)n2)C[C@@H](N)[C@]1(C)O [Example 285, N-(4-((2R,4R,5S,6R)-4-amino-5-hydroxy-5,6-dimethyltetrahydro-2H-pyran-2-yl)pyridin-3-yl)-6-(2,6-difluoro-4-(methylsulfonyl)phenyl)-5-fluoropicolinamide]",7.35,5.93,5.89
"CC(=O)Nc1cc(F)c(-c2nc(C(=O)Nc3cnccc3[C@H]3C[C@@H](N)[C@](C)(O)[C@@H](C)O3)ccc2F)c(F)c1 [Example 338, 6-(4-acetamido-2,6-difluorophenyl)-N-(4-((2R,4R,5S,6R)-4-amino-5-hydroxy-5,6-dimethyltetrahydro-2H-pyran-2-yl)pyridin-3-yl)-5-fluoropicolinamide]",8.68,6.03,
"CC1(C)C[C@H](N)C[C@@H](c2ccncc2NC(=O)c2ccc(F)c(-c3c(F)cccc3F)n2)O1 [Example 299, N-(4-((2S,4R)-4-amino-6,6-dimethyltetrahydro-2H-pyran-2-yl)pyridin-3-yl)-6-(2,6-difluorophenyl)-5-fluoropicolinamide]",8.19,6.85,6.65
"CC(C)[C@@H]1C[C@H](N)C[C@H](c2ccncc2NC(=O)c2ccc(F)c(-c3c(F)ccc(C#N)c3F)n2)O1 [Example 337, N-(4-((2R,4S,6S)-4-amino-6-isopropyltetrahydro-2H-pyran-2-yl)pyridin-3-yl)-6-(3-cyano-2,6-difluorophenyl)-5-fluoropicolinamide]",7.40,5.87,
"CC(C)[C@H]1O[C@@H](c2ccncc2NC(=O)c2ccc(F)c(-c3cnc4[nH]ccc4c3)n2)C[C@@H](N)[C@@H]1O [Example 295, N-(4-((2R,4R,5S,6R)-4-amino-5-hydroxy-6-isopropyltetrahydro-2H-pyran-2-yl)pyridin-3-yl)-5-fluoro-6-(1H-pyrrolo[2,3-b]pyridin-5-yl)picolinamide]",6.46,,5.37
"CC(C)[C@H]1O[C@@H](c2ccncc2NC(=O)c2ccc(F)c(-c3cccc(S(C)(=O)=O)c3)n2)C[C@@H](N)[C@@H]1O [Example 312, N-(4-((2R,4R,5S,6R)-4-amino-5-hydroxy-6-isopropyltetrahydro-2H-pyran-2-yl)pyridin-3-yl)-5-fluoro-6-(3-(methylsulfonyl)phenyl)picolinamide]",5.61,,< 4.60
"CC[C@H]1OC(c2ccncc2NC(=O)c2ccc(F)c(-c3c(F)cc(S(C)(=O)=O)cc3F)n2)C[C@@H](N)[C@]1(C)O (stereo in doubt) [Example 283, N-(4-((2S,4R,5S,6R)-4-amino-6-ethyl-5-hydroxy-5-methyltetrahydro-2H-pyran-2-yl)pyridin-3-yl)-6-(2,6-difluoro-4-(methylsulfonyl)phenyl)-5-fluoropicolinamide]",7.06,,4.90
"CC(C)(C)[C@H]1O[C@@H](c2ccncc2NC(=O)c2ccc(F)c(-c3c(F)cc(S(C)(=O)=O)cc3F)n2)C[C@@H](N)[C@@H]1O [Example 280, N-(4-((2R,4R,5S,6R)-4-amino-6-(tert-butyl)-5-hydroxytetrahydro-2H-pyran-2-yl)pyridin-3-yl)-6-(2,6-difluoro-4-(methylsulfonyl)phenyl)-5-fluoropicolinamide]",7.93,6.70,5.65
"C[C@@]1(O)[C@H](N)C[C@@H](c2ccncc2NC(=O)c2ccc(F)c(-c3c(F)cccc3F)n2)OC12CC2 [Example 288, N-(4-((5S,7R,8R)-7-amino-8-hydroxy-8-methyl-4-oxaspiro[2.5]octan-5-yl)pyridin-3-yl)-6-(2,6-difluorophenyl)-5-fluoropicolinamide]",6.56,,4.79
"C[C@]1(O)[C@@H](N)C[C@H](c2ccncc2NC(=O)c2ccc(F)c(-c3c(F)cccc3F)n2)OC12CC2 [Example 287, N-(4-((5R,7S,8S)-7-amino-8-hydroxy-8-methyl-4-oxaspiro[2.5]octan-5-yl)pyridin-3-yl)-6-(2,6-difluorophenyl)-5-fluoropicolinamide]",6.41,,5.82
"C[C@H]1O[C@@H](c2ccncc2NC(=O)c2ccc(F)c(-c3c(F)cc(C(=O)N(C)C)cc3F)n2)C[C@@H](N)[C@]1(C)O [Example 334, N-(4-((2R,4R,5S,6R)-4-amino-5-hydroxy-5,6-dimethyltetrahydro-2H-pyran-2-yl)pyridin-3-yl)-6-(4-(dimethylcarbamoyl)-2,6-difluorophenyl)-5-fluoropicolinamide]",7.20,6.12,
